Data published in patent US20260325605A1, “INHIBITORS” (Zealand Pharma A/S, priority 2022, published 2026).

Legend:
Kv1.3 = target: T1, Kv1.3 (Homo sapiens, UniProt P22001); assay: Patch clamp assay (QPatch), Kv1.3; format: cell-based; conditions: CHO cells stably expressing human Kv1.3, read-out: Potency IC50, Kv1.3
T1 construct: expressed in transfected cells

Kv1.1 = target: T2, Kv1.1 (Homo sapiens, UniProt Q09470); assay: Patch clamp assay (QPatch), Kv1.1; format: cell-based; conditions: for IC50: QPatch, CHO cells stably expressing human Kv1.1, read-out: Potency IC50, Kv1.1; for Selectivity Kv1.1/Kv1.3: ratio of IC50 Kv1.1/Kv1.3
T2 construct: expressed in transfected cells
T2 sequence (Q09470 whole entry): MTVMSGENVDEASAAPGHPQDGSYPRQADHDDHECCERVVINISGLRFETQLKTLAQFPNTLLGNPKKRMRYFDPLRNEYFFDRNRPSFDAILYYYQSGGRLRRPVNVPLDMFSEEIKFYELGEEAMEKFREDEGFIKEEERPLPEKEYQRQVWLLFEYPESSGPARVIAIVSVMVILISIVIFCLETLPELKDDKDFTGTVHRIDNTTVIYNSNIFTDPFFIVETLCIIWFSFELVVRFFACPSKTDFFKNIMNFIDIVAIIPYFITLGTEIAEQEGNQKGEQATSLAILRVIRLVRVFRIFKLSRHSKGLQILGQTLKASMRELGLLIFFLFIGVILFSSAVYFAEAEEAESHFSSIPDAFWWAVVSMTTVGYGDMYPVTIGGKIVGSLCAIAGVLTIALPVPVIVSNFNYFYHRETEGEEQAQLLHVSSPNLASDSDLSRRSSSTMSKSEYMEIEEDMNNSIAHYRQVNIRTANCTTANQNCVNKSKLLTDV
Procedure: Selectivity of Kv1.3 inhibitor peptides for Kv1.3 over other potassium ion channels (Kv1.1, Kv1.2 and Kv1.6) was determined using patch clamp assay.
Chinese Hamster Ovary (CHO) cell lines stably expressing exogenous human α-subunits of each potassium ion channel were grown and passaged under standard culture conditions.
The automated, chip-based planar patch clamp device QPatch® was used to quantitate the ionic currents. All recordings were made in the conventional whole-cell configuration after establishment of gigaohm seals. […] During experiments 0.1% (v/v) BSA was included as a vehicle in all external recording solutions. Currents were elicited from a holding potential of −80 mV using a voltage protocol, which shifted the voltage to 30 mV for 500 ms every 15 s.
Concentration-response relationships were established by cumulatively applying seven escalating concentrations of test sample to an individual cell with a recording period of 2 min per compound application.
The efficacy was determined as the mean charge for the last three sweeps at the end of each concentration application period from the cursor positions. The percent inhibition for each test dose application period was calculated as the reduction in mean cursor value (charge) relative to the cursor value measured at the end of the vehicle period and used to calculate the IC50 from the concentration response curve.

Kv1.2 = target: T3, Kv1.2 (Homo sapiens, UniProt P16389); assay: Patch clamp assay (QPatch), Kv1.2; format: cell-based; conditions: for IC50: QPatch, CHO cells stably expressing human Kv1.2, read-out: Potency IC50, Kv1.2; for Selectivity Kv1.2/Kv1.3: ratio of IC50 Kv1.2/Kv1.3
T3 construct: expressed in transfected cells
T3 sequence (P16389 whole entry): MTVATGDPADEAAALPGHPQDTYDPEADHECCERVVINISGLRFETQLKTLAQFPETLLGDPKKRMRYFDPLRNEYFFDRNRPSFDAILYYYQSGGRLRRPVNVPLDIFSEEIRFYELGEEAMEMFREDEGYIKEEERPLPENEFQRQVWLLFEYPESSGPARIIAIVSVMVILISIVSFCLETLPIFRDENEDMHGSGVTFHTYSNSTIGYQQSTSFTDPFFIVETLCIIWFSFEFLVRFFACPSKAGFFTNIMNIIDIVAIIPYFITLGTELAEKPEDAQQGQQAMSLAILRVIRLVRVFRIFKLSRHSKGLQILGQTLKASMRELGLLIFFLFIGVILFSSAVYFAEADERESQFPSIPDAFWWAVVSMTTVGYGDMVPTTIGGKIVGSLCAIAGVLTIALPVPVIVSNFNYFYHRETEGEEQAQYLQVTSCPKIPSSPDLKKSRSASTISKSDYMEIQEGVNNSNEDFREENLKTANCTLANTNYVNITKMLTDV

Kv1.6 = target: T4, Kv1.6 (Homo sapiens, UniProt P17658); assay: Patch clamp assay (QPatch), Kv1.6; format: cell-based; conditions: for IC50: QPatch, CHO cells stably expressing human Kv1.6, read-out: Potency IC50, Kv1.6; for Selectivity Kv1.6/Kv1.3: ratio of IC50 Kv1.6/Kv1.3
T4 construct: expressed in transfected cells
T4 sequence (P17658 whole entry): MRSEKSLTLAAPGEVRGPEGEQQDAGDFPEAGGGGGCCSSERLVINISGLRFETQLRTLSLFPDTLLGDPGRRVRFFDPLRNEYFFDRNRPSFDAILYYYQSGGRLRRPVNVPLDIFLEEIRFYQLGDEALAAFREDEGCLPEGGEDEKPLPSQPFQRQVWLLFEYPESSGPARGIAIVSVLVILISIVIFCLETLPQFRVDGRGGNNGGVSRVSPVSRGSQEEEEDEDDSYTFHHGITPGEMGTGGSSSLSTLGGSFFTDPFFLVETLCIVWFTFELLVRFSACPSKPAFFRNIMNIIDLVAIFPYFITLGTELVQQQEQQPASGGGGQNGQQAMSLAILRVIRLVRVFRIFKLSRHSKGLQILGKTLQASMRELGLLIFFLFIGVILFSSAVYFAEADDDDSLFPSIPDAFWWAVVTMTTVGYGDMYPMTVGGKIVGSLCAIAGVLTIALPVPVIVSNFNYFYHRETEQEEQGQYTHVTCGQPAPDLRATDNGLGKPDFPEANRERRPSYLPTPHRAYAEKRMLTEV

[1] = test system: T-cell activation in rat whole blood; assay: Example 4: IL-17A release in thapsigargin stimulated rat whole blood; format: cell-based, rat (Lewis or Sprague-Dawley); conditions: 24 Hr, at least 2 replicates, unit inferred, read-out: IC50 (inhibition of IL-17A release)
Text: Rat whole blood was used to assess the potency of Kv1.3 inhibitor peptides on T-cell activation as determined by IL-17A release after stimulation with thapsigargin. Addition of thapsigargin results in activation of a signalling cascade ending up in activation of T cell proliferation and cytokine production where the Kv1.3 ion channel plays a key role, so activity of Kv1.3 inhibitors in primary cells can be measured in this experimental system.
Rat whole blood was obtained from healthy, naïve Lewis or Sprague-Dawley rats that were terminally bleed from the heart using Sodium Heparin blood sampling tubes for collection. Peptides were diluted to 4× final testing concentrations in assay buffer (DMEM+GlutaMAX), GlutaMAX is a medium comprising 3.97 mM L-alanine-L-glutamine (Gibco Cat #61965026) supplemented with 25 mM HEPES buffer, 1 mM Sodium Pyruvate, 100 units/ml Penicillin, 100 μg/ml Streptomycin and 0.05% Casein from bovine milk (Sigma-Aldrich)) and 25 μl was added to wells of a 96 well plate. Then 50 μl whole rat blood was added and incubated for minimum 5 minutes at room temperature to allow compound binding. Then 25 μl 40 μM thapsigargin diluted in assay buffer was added to all wells of the assay plates to activate the cells, followed by incubation for 24 Hr at 37° C./5% CO2 in a humidified box. The assay plates were centrifuged for 10 min at 300 g at 4° C. and the supernatants were transferred to new plates. The concentrations of IL-17A released to the supernatants were measured using a Rat IL-17A ELISA Kit (Abcam Cat #ab214028) as recommended by the manufacturer. Samples were diluted 2.5-fold by transferring 20 μl of the supernatants to wells on ELISA plates containing 30 μl buffer 75BS from the detection kit.
Data from peptides eliciting an inhibition of IL-17A were normalised relative to full thapsigargin activation (no inhibitor added) and no activation controls (addition of assay buffer instead of thapsigargin) to calculate the IC50 from the concentration response curve.
Results are shown in Table 5, expressed as IC50, with standard deviation (IC50_SD). All values are derived from at least 2 replicates. The biological effects ex vivo show a correlation with the potency of the peptides.

T1 sequence (P22001 whole entry): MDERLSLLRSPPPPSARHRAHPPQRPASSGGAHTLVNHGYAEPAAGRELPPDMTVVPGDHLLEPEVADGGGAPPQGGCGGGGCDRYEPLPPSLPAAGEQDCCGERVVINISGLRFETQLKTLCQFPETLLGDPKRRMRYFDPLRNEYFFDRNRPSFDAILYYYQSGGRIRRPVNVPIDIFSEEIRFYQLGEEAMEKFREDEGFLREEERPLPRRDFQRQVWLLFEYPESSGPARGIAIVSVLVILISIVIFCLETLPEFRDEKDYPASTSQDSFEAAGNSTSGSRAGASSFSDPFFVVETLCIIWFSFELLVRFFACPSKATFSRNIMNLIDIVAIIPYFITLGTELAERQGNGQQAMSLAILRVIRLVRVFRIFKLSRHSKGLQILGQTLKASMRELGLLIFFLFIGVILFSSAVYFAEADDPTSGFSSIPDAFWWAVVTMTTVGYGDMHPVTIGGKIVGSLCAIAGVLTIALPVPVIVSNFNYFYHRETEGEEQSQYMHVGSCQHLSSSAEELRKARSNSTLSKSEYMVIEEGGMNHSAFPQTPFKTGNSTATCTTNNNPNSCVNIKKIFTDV

Row | Substance | IC50 (Kv1.3) [nM] | IC50 (Kv1.1) [nM] | Selectivity Kv1.1/Kv1.3 (Kv1.1) | IC50 (Kv1.2) [nM] | Selectivity Kv1.2/Kv1.3 (Kv1.2) | IC50 (Kv1.6) [nM] | Selectivity Kv1.6/Kv1.3 (Kv1.6) | IC50 [1] [nM]
1 | H-S[Nle]D[Nle]RC(1)SASVEC(2)AQKC(3)LAAIGSIFGKC(1)MNKKC(2)KC(3)YPR-NH2 [Peptide 82] | 0.16 | – | – | – | – | – | – | –
2 | H-NMDMRC(1)SASVEC(2)KQKC(3)LKAIGSKFGKC(1)MNKKC(2)KC(3)YPR-NH2 [Peptide 35] | 0.42 | > 3000 | >7100 | 100 | 237 | 207 | 490 | 2.1
3 | H-NMDMRC(1)SISVEC(2)KQKC(3)LKAIGSIFGKC(1)MNKKC(2)KC(3)YPR-NH2 [Peptide 27] | 0.26 | > 3000 | >11800 | 43 | 169 | > 3000 | >11800 | 0.61
4 | H-N[Nle]D[Nle]RC(1)SHSVEC(2)KQKC(3)LKAIGSIFGKC(1)[Nle]NKKC(2)KC(3)YPR-NH2 [Peptide 48] | 0.54 | > 3000 | >5600 | 772 | 1438 | 609 | 1134 | 0.83
5 | H-NMDMRC(1)SASVEC(2)KQKC(3)LKYIGSIFGKC(1)MNKKC(2)KC(3)YPR-NH2 [Peptide 56] | 0.12 | – | – | – | – | – | – | –
6 | H-NMDMRC(1)SASVEC(2)KLKC(3)LKAIGSIFGKC(1)MNKKC(2)KC(3)YPR-NH2 [Peptide 33] | 0.38 | – | – | – | – | – | – | 0.75
7 | H-NMDMRC(1)SASVEC(2)KQKC(3)KKAIGSIFGKC(1)MNKKC(2)KC(3)YPR-NH2 [Peptide 20] | 0.22 | > 3000 | >13500 | 45 | 202 | 435 | 1955 | 0.56
8 | H-NMDMRC(1)SASVQC(2)KQKC(3)LKAIGSIFGKC(1)MNKKC(2)KC(3)YPR-NH2 [Peptide 29] | 0.2 | > 3000 | >15200 | 16 | 83 | 252 | 1272 | 0.53
9 | H-NMDMRC(1)SASVEC(2)KQKC(3)LKAIGSIFGKC(1)MNGKC(2)KC(3)YPR-NH2 [Peptide 37] | 0.31 | > 3000 | >9700 | 439 | 1422 | > 3000 | >9700 | 1.2
10 | H-PIE[Nle]RC(1)SASVEC(2)KQKC(3)LKAIGSIFGKC(1)[Nle]NKKC(2)KC(3)YPR-OH [Peptide 99] | 0.39 | > 3000 | >7800 | 1760 | 4561 | > 3000 | >7800 | 1.8
11 | H-S[Nle]D[Nle]RC(1)SASVEC(2)KQKC(3)LKAIGSIFGKC(1)MNKKC(2)RC(3)YPR-NH2 [Peptide 77] | 0.13 | – | – | – | – | – | – | 0.86
12 | H-N[Nle]D[Nle]RC(1)SASVEC(2)KQKC(3)LKAIGSIFGKC(1)MNKKC(2)KC(3)YPR-NH2 [Peptide 40] | 0.15 | – | – | – | – | – | – | –
13 | H-NMDMRC(1)SASVEC(2)KQKC(3)LKRIGSIFGKC(1)MNKKC(2)KC(3)YPR-NH2 [Peptide 57] | 0.3 | > 3000 | >9900 | 57 | 187 | 932 | 3062 | –
14 | H-Y[Nle]D[Nle]RC(1)SASVEC(2)KQKC(3)LKAIGSIFGKC(1)[Nle]NKKC(2)KC(3)YPR-NH2 [Peptide 66] | 0.14 | – | – | – | – | – | – | 1.1
15 | H-NMDMRC(1)SASVEC(2)KQKC(3)YKAIGSIFGKC(1)MNKKC(2)KC(3)YPR-NH2 [Peptide 51] | 0.27 | – | – | – | – | – | – | –
16 | H-V[Nle]D[Nle]RC(1)SASVEC(2)KQKC(3)LKAIGSIFGKC(1)[Nle]NKKC(2)KC(3)YPR-NH2 [Peptide 69] | 0.32 | – | – | – | – | – | – | 0.98
17 | H-NMEMRC(1)SASVEC(2)KQKC(3)LKAIGSIFGKC(1)MNKKC(2)KC(3)YPR-OH [Peptide 13] | 0.11 | > 3000 | >27600 | 228 | 2093 | > 3000 | >27600 | –
18 | H-S[Nle]D[Nle]RC(1)SASVEC(2)AQSC(3)LKAIGSIFGKC(1)MNKKC(2)KC(3)YPR-NH2 [Peptide 81] | 0.21 | > 3000 | >14600 | 1150 | 5596 | > 3000 | >14600 | –
19 | H-NMDMRC(1)KASVEC(2)KQKC(3)LKAIGSIFGKC(1)MNKKC(2)KC(3)YPR-NH2 [Peptide 26] | 0.09 | > 3000 | >34200 | 67 | 761 | 363 | 4144 | –
20 | H-P[Nle]E[Nle]RC(1)[2,4-Diaminobutanoyl]ASVEC(2)KQKC(3)LAAIGSIFGKC(1)[Nle]NKKC(2)KC(3)YPR-OH [Peptide 84] | 0.028 | > 3000 | >100000 | 480 | 17000 | > 3000 | >100000 | –
21 | H-NMDMRC(1)SASVEC(2)KQKC(3)LKAYGSIFGKC(1)MNKKC(2)KC(3)YPR-NH2 [Peptide 59] | 0.34 | > 3000 | >8800 | 145 | 426 | > 3000 | >8800 | –
22 | H-H[Nle]D[Nle]RC(1)SASVEC(2)KQKC(3)LKAIGSIFGKC(1)[Nle]NKKC(2)KC(3)YPR-NH2 [Peptide 65] | 0.25 | – | – | – | – | – | – | 1.2
23 | H-P[Nle]E[Nle]RC(1)[2-Amino-3-guanidinopropionyl]ASVEC(2)KQKC(3)LAAIGSIFGKC(1)[Nle]NKKC(2)KC(3)YPR-OH [Peptide 91] | 0.064 | > 3000 | >46000 | 380 | 6000 | > 3000 | >46000 | –
24 | H-N[Nle]D[Nle]RC(1)SASVEC(2)KQKC(3)LKAIGSIFGKC(1)[Nle]NKKC(2)KC(3)YPR-NH2 [Peptide 41] | 0.26 | > 3000 | >11600 | 113 | 436 | 1830 | 7073 | –
25 | H-QMDMRC(1)SASVEC(2)KQKC(3)LKAIGRGFGKC(1)MNKKC(2)KC(3)YPR-OH [Peptide 2] | 1.5 | > 3000 | >2000 | 97 | 65 | 1810 | 1204 | –
26 | H-AAAISCVGSPECPPKCRAQGCKNGKCMNRKCKCYYC-NH2 [Vm24, reference compound] | 0.15 | 0.097 | 0.65 | 4.7 | 31 | 21 | 139 | –
27 | H-NMDMRC(1)SASVEC(2)KQKC(3)LAIGSIFGKC(1)MNKKC(2)KC(3)YPR-NH2 [Peptide 55] | 2.41 | > 3000 | >1200 | 291 | 121 | > 3000 | >1200 | –
28 | H-S[Nle]D[Nle]RC(1)SASVEC(2)KQKC(3)LKAIGSIFGKC(1)[Nle]NKKC(2)KC(3)YPR-NH2 [Peptide 67] | 0.18 | – | – | – | – | – | – | 0.47
29 | H-NMDMRC(1)SASVEC(2)KQKC(3)RKAIGSIFGKC(1)MNKKC(2)KC(3)YPR-NH2 [Peptide 52] | 0.25 | – | – | – | – | – | – | –
